Source: patent US6387900B1, “3(5)-ureido-pyrazole derivatives process for their preparation and their use as antitumor agents” (Pharmacia & Upjohn S.p.A., priority 1999, dated 2002)

melting point [°C]	Compound
162 to 164	O=C(Nc1ccccc1)Nc1cc(C2CC2)n[nH]1 [Example 1, N-(3-cyclopropyl-1H-pyrazol-5-yl)-N′-phenylurea]
177 to 179	O=C(NCc1ccc(Cl)cc1Cl)Nc1cc(C2CC2)n[nH]1 [Example 2, N-(3-cyclopropyl-1H-pyrazol-5-yl)-N′-(2,4-dichlorobenzyl)urea]
